In patent US20120214818A1, “METHODS OF TREATING DIASTOLIC DYSFUNCTION AND RELATED CONDITIONS” (THE BOARD OF TRUSTEES OF THE UNIVERSITY OF ILLINOIS, priority 2009, published 2012):
Several values for one entry are separate records, joined by “and”; a condition that tells them apart may be missing. Equal entries are not always repeated.

Columns and labels:
patients = conditions: cited from earlier work
DOCA-salt and sham mice = assay: Invasive hemodynamic (pressure-volume catheter) assessment of diastolic dysfunction, acute ranolazine; type: in vivo, mouse; conditions: for DBP, diastolic blood pressure / EDPVR, end diastolic pressure volume relationship (slope) / EF, ejection fraction (invasive) / ESPVR, end systolic pressure volume relationship / HR, heart rate / LVEDP, left ventricular end diastolic pressure / LVESP, left ventricular end systolic pressure / dP/dt max / dP/dt min: ranolazine 5 mg/kg i.v. then 4.8 mg/kg/h; for SBP, systolic blood pressure: ranolazine 5 mg/kg intravenous injection then infusion 4.8 mg/kg/h
Protocol: Generation of DOCA-salt mouse model: Previously, it was shown that this model leads to mild hypertension, myocardial oxidative stress, and diastolic dysfunction.^20 A gradual and mild elevation in blood pressure was induced by unilateral nephrectomy, subcutaneous implantation of a controlled release deoxycorticosterone acetate (DOCA) pellet (0.7 mg/d; Innovative Research of America, Sarasota, Fla.), and substituting drinking water with 1.05% saline. Control animals underwent a sham operation, had placebo pellet implantation, and received water without salt. Invasive assessment of diastolic dysfunction: Mice were anesthetized with 1-1.5% isoflurane and maintained at 37° C. The pressure-volume (PV) catheter was inserted into the right common carotid artery and advanced into the LV. […] Volume and parallel conductance calibration were performed as previously described.^20 Baseline hemodynamic measurements were obtained, and subsequently, the mice received an intravenous injection of ranolazine (5 mg/kg) followed by an infusion at 4.8 mg/kg/h, while additional hemodynamic measurements were recorded. Blood samples were obtained during the last five minutes of the procedure to determine the plasma ranolazine concentration. Previously, we have shown that this model leads to mild hypertension, myocardial oxidative stress, and diastolic dysfunction.^20 A gradual and mild elevation in blood pressure was induced by unilateral nephrectomy, subcutaneous implantation of a controlled release deoxycorticosterone acetate (DOCA) pellet (0.7 mg/d; Innovative Research of America, Sarasota, Fla.), and substituting drinking water with 1.05% saline. Control animals underwent a sham operation, had placebo pellet implantation, and received water without salt. Mice were anesthetized with 1-1.5% isoflurane and maintained at 37° C. The pressure-volume (PV) catheter was inserted into the right common carotid artery and advanced into the LV. […] Volume and parallel conductance calibration were performed as previously described.^20 Baseline hemodynamic measurements were obtained, and subsequently to determine the acute effect, the mice received an intravenous injection of ranolazine (5 mg/kg) followed by an infusion at 4.8 mg/kg/h, while additional hemodynamic measurements were recorded. Blood samples were obtained during the last five minutes of the procedure to determine the plasma ranolazine concentration.

[1] = test system: myofilaments of skinned left ventricular papillary fiber bundles; assay: Ca2+-sensitivity of tension in skinned fiber bundles (first series, pCa-tension); type: biochemical, mouse; conditions: for myofilament Ca2+ sensitivity: DOCA-salt fibers/myocytes treated with ranolazine
Protocol: Ca^2+-sensitivity of tension in skinned fibers: Myofilament response to Ca^2+ was measured as essentially described in Reference 24. Left ventricular papillary muscles were dissected from mouse hearts and placed in 4° C. high relaxing solution (HR), which contained 10.00 mM EGTA, 41.89 mM K-Prop, 6.57 mM MgCl2, 100.00 mM 2-[bis(2-hydroxyethyl)amino]ethanesulfonic acid (BES), 6.22 mM Na-ATP, 10.00 mM CrP, 5.00 mM Na-azide, 2.5 μg/mL Pepstatin, 1 μg/mL Leupeptin, and 50 μM PMSF, pH 7.0. The muscles were then dissected further under the microscope into uniform thin bundles of about 3-5 mm in length and 150-250 μm in diameter. The fiber bundles were placed then into a skinning solution of HR that contained 1% triton for 1-2 h at 4° C. The skinned fiber bundles were mounted with cellulose acetate glue in a force measuring apparatus and sarcomere length was adjusted to 2.2 μm using a laser diffraction pattern and width and thickness were determined for calculation of cross-sectional area. The fiber bundles were incubated in ranolazine or vehicle for 15 minutes, and then were activated at 22° C. over a series of pCa (−log of the M Ca^2+ concentration) values between pCa 8.00 and pCa 4.5. Activating solutions were prepared by mixing HR with a pCa 4.50 solution of 10.00 mM EGTA, 9.99 mM CaCl2, 22.16 mM K-Prop (K-Prop stock had 1.00 M propionic acid and 1.00 M KOH), 6.20 mM MgCl2, 100.00 mM BES, 6.29 mM Na-ATP, 10.00 mM creatine phosphate (CrP), 5.00 mM Na-azide, 2.5 μg/mL pepstatin, 1 μg/mL leupeptin, and 50 μM PMSF, pH 7.0. HR and pCa 8.00-pCa 4.50 solutions had one unit of creatine phosphokinase per 200 μL of solution. Tension generated was computed from the force/cross-sectional area and data were analyzed in the Graphpad Prism software and fit into a sigmoidal modified Hill equation in order to generate tension-pCa curves, Hill coefficients, and pCa50 (pCa value at half-maximum tension).
We measured myofilament response to Ca^2+ under two experimental conditions as described in detail below. In a first series of experiments the skinned fiber bundles were mounted in a force measuring apparatus and sarcomere length (SL) was adjusted to 2.2 μm using a laser diffraction pattern and width and thickness were determined for calculation of cross-sectional area. Force was measured over a range of pCa values Skinned fiber bundles were treated with 10 μmol/L ranolazine for 15 min prior to evaluation. In a second series of experiments under different experimental conditions, we determined steady-state Mg-ATPase activity, while simultaneously measuring isometric tension in skinned fiber bundles as a function of pCa. In all experiments, skinned fibers were treated with ranolazine or DMSO vehicle for 15 min prior to beginning either tension or tension/ATPase rate measurements. Tension generated was computed from the force/cross-sectional area and data were analyzed in the GraphPad Prism software and fit with a sigmoidal modified Hill equation in order to generate tension-pCa curves, Hill coefficients, and pCa50 (pCa value at half-maximum tension). We also determined cross-bridge kinetics employing a quick release/restretch protocol. The rate constant for force redevelopment, Ktr, provides a measure of the rate of cross-bridge entry into the force generating state. In all experiments, only fiber bundles retaining more than 80% of their initial maximum tension were included in the analysis. […]

COc1ccccc1OCC(O)CN1CCN(CC(=O)Nc2c(C)cccc2C)CC1 (stereo not shown) [ranolazine]
proarrhythmic risk (patients; clinically relevant doses, MERLIN TIMI 36 investigators): no proarrhythmic risk
relationship with the QTc interval (patients; human, in vivo): positive linear relationship
Pearson correlation coefficient of EDPVR with serum/plasma ranolazine levels (DOCA-salt and sham mice; DOCA-salt mice, n=6, p<0.05): 0.70
DBP, diastolic blood pressure (DOCA-salt and sham mice; DOCA-salt mice): 73 ± 2 mmHg
EDPVR, end diastolic pressure volume relationship (slope) (DOCA-salt and sham mice; DOCA-salt mice): 0.17±0.01 mmHg/μL
EF, ejection fraction (invasive) (DOCA-salt and sham mice; DOCA-salt mice): 67 ± 4%
ESPVR, end systolic pressure volume relationship (DOCA-salt and sham mice; DOCA-salt mice): 4.1 ± 0.2 mmHg/μL
HR, heart rate (DOCA-salt and sham mice; DOCA-salt mice): 588 ± 16 bpm
LVEDP, left ventricular end diastolic pressure (DOCA-salt and sham mice; DOCA-salt mice): 3.5±0.4 mmHg and 3.6 ± 0.4 mmHg
LVESP, left ventricular end systolic pressure (DOCA-salt and sham mice; DOCA-salt mice): 98 ± 3 mmHg
dP/dt max (DOCA-salt and sham mice; DOCA-salt mice): 12,495 ± 555 mmHg/sec
dP/dt min (DOCA-salt and sham mice; DOCA-salt mice): −12,211 ± 792 mmHg/sec
SBP, systolic blood pressure (DOCA-salt and sham mice; DOCA-salt mice): 102 ± 3 mmHg
DBP, diastolic blood pressure (DOCA-salt and sham mice; sham mice): 58 ± 2 mmHg
EDPVR, end diastolic pressure volume relationship (slope) (DOCA-salt and sham mice; sham mice): 0.18±0.01 mmHg/μL
EF, ejection fraction (invasive) (DOCA-salt and sham mice; sham mice): 73 ± 5%
ESPVR, end systolic pressure volume relationship (DOCA-salt and sham mice; sham mice): 3.9 ± 0.5 mmHg/μL
HR, heart rate (DOCA-salt and sham mice; sham mice): 620 ± 5 bpm
LVEDP, left ventricular end diastolic pressure (DOCA-salt and sham mice; sham mice): 4.2 ± 0.5 mmHg
LVESP, left ventricular end systolic pressure (DOCA-salt and sham mice; sham mice): 84 ± 3 mmHg and 85 ± 3 mmHg
dP/dt max (DOCA-salt and sham mice; sham mice): 12,032 ± 787 mmHg/sec
dP/dt min (DOCA-salt and sham mice; sham mice): −10,083 ± 685 mmHg/sec
SBP, systolic blood pressure (DOCA-salt and sham mice; sham mice): 93 ± 3 mmHg
Maximum Tension ([1]; DOCA-salt fibers treated with ranolazine (FIG. 11)): 36.03±1.50 mN/mm^2
myofilament Ca2+ sensitivity [1]: returned the DOCA-salt myofilament sensitivity to levels similar to sham fibers
myofilament Ca2+ sensitivity ([1]; listed as Ranolazine): returned DOCA-salt myofilament sensitivity to levels similar to sham myocytes
Hill n ([1]; fibers from DOCA mice treated with 10 μmol/L ranolazine 15 min, listed as ranalozine): 3.71+/−1.0 and 3.71±1.0
pCa50 (pCa-tension relations normalized to maximum tension) ([1]; fibers from DOCA mice treated with 10 μmol/L ranolazine 15 min, sarcomere length 2.2 μm, 22° C., listed as ranalozine): 6.0+/−0.03 and 6.0±0.03
